# According to ChEMBL document CHEMBL1201862, “PubChem BioAssay data set” (2004):
#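 How tested: cells in 96-well plates exposed to compound for 48 hours at five concentrations. Abbreviation: GI50, concentration required for 50% inhibition of growth.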 Activity calls are given as the source filed them. No stated cut-off is given here; in the data, active = GI50 up to about 1.1 µM and inactive = higher.
# Experiments:
# Experiment in all cases: growth of human tumour cells (NCI), 48 h
# [1] = tested on: A549
# [2] = tested on: CAKI-1
# [3] = tested on: DMS-273
# [4] = tested on: HCC 2998
# [5] = tested on: M14
# [6] = tested on: M19-MEL
# [7] = tested on: NCI-H226
# [8] = tested on: RXF 393
# [9] = tested on: SF-268
# [10] = tested on: SK-MEL-2
# [11] = tested on: SK-OV-3
# [12] = tested on: SN12C
# [13] = tested on: SNB-19
# [14] = tested on: UACC-257
# [15] = tested on: LOX IMVI
# [16] = tested on: OVCAR-3
Structure (SMILES),GI50 [1],GI50 [2],GI50 [3],GI50 [4],GI50 [5],GI50 [6],GI50 [7],GI50 [8],GI50 [9],GI50 [10],GI50 [11],GI50 [12],GI50 [13],GI50 [14],GI50 [15],GI50 [16]
O=C(CCc1cc(-c2ccco2)n(-c2ccc([N+](=O)[O-])cc2[N+](=O)[O-])n1)Nc1ccccc1,> 100 µM (inactive),> 100 µM (inactive),> 100 µM (inactive),> 100 µM (inactive),> 100 µM (inactive),> 100 µM (inactive),> 100 µM (inactive),> 100 µM (inactive),> 100 µM (inactive),> 100 µM (inactive),> 100 µM (inactive),> 100 µM (inactive),> 100 µM (inactive),> 100 µM (inactive),–,–
Cc1cc(C)c(C(=O)OC(c2ccccc2)C(c2ccccc2)N2CCOCC2)c(C)c1 (stereo not drawn),> 100 µM (inactive),> 100 µM (inactive),> 100 µM (inactive),> 100 µM (inactive),> 100 µM (inactive),> 100 µM (inactive),> 100 µM (inactive),91 µM (inactive),> 100 µM (inactive),> 100 µM (inactive),> 100 µM (inactive),> 100 µM (inactive),> 100 µM (inactive),> 100 µM (inactive),> 100 µM (inactive),> 100 µM (inactive)
CCOC(=O)NC(=O)c1cn(CCOC(=O)NCCCCCCNC(=O)OCCn2cc(C(=O)NC(=O)OCC)c(=O)[nH]c2=O)c(=O)[nH]c1=O,> 100 µM (inactive),> 100 µM (inactive),> 100 µM (inactive),> 100 µM (inactive),> 100 µM (inactive),> 100 µM (inactive),> 100 µM (inactive),> 100 µM (inactive),> 100 µM (inactive),> 100 µM (inactive),> 100 µM (inactive),> 100 µM (inactive),> 100 µM (inactive),> 100 µM (inactive),> 100 µM (inactive),> 100 µM (inactive)
CC1(C)COC(c2c(-c3ccccc3)noc2C[S+]([O-])c2ccccc2)=N1 (stereo not drawn),46 µM (inactive),61.5 µM (inactive),31.2 µM (inactive),32.3 µM (inactive),48.9 µM (inactive),45.1 µM (inactive),30.3 µM (inactive),> 100 µM (inactive),19.9 µM (inactive),24.5 µM (inactive),72.3 µM (inactive),31.3 µM (inactive),> 100 µM (inactive),52.1 µM (inactive),41 µM (inactive),> 100 µM (inactive)
COC12C=C(C)C(CC1)CC2C(=O)O (stereo not drawn),> 100 µM (inactive),> 100 µM (inactive),> 100 µM (inactive),> 100 µM (inactive),> 100 µM (inactive),> 100 µM (inactive),> 100 µM (inactive),> 100 µM (inactive),> 100 µM (inactive),> 100 µM (inactive),> 100 µM (inactive),> 100 µM (inactive),> 100 µM (inactive),> 100 µM (inactive),> 100 µM (inactive),> 100 µM (inactive)
CN1C(=O)C2C=CC1C1CCC2N(C)C1=O (stereo not drawn),> 100 µM (inactive),> 100 µM (inactive),> 100 µM (inactive),> 100 µM (inactive),> 100 µM (inactive),> 100 µM (inactive),> 100 µM (inactive),> 100 µM (inactive),> 100 µM (inactive),> 100 µM (inactive),> 100 µM (inactive),> 100 µM (inactive),> 100 µM (inactive),> 100 µM (inactive),> 100 µM (inactive),> 100 µM (inactive)
CC[C@@H](C)[C@@H]1NC(=O)C(C(C)=O)=C1O,26.4 µM (inactive),0.456 µM (active),24.4 µM (inactive),30.8 µM (inactive),17.1 µM (inactive),11.9 µM (inactive),31.7 µM (inactive),26.7 µM (inactive),24.1 µM (inactive),15.3 µM (inactive),23.2 µM (inactive),25.1 µM (inactive),0.297 µM (active),34.2 µM (inactive),26.1 µM (inactive),27.6 µM (inactive)
C=C1C(=O)OC2C[C@H](C)C3CC(=O)C(C)=C3CC12 (stereo partly drawn),24.5 µM (inactive),5.09 µM (inactive),17.1 µM (inactive),15.5 µM (inactive),12.4 µM (inactive),13.2 µM (inactive),2.94 µM (inactive),13.2 µM (inactive),18.2 µM (inactive),14.2 µM (inactive),> 57 µM (inactive),12.1 µM (inactive),32.9 µM (inactive),13.1 µM (inactive),15 µM (inactive),12.1 µM (inactive)
Cn1c(=O)cc2[nH]c3ccccc3n2c1=O,> 100 µM (inactive),> 100 µM (inactive),25.5 µM (inactive),72.8 µM (inactive),72.9 µM (inactive),33.7 µM (inactive),55.6 µM (inactive),28.8 µM (inactive),> 100 µM (inactive),> 100 µM (inactive),48.8 µM (inactive),> 10 µM (inactive),> 100 µM (inactive),> 100 µM (inactive),20.2 µM (inactive),> 100 µM (inactive)
Cn1cnc([N+](=O)[O-])c1Sc1nc2ccccc2o1,23.1 µM (inactive),1.9 µM (inactive),3.01 µM (inactive),11 µM (inactive),6.35 µM (inactive),8.43 µM (inactive),15.1 µM (inactive),8.91 µM (inactive),8.32 µM (inactive),28.1 µM (inactive),22.8 µM (inactive),6.78 µM (inactive),17.7 µM (inactive),5.86 µM (inactive),10.7 µM (inactive),5.81 µM (inactive)
